Test in all cases: NCI anticancer screen, dose series, 48 h
Experiment [1] concerns A498 renal.
The subject of experiment [2] is EKVX NSCLC.
Experiment [3] relates to IGROV1 ovarian.
Experiment [4] has as its system M14 melanoma.
Experiment [5] concerns MOLT-4 leukemia.
The test system of experiment [6] is OVCAR-5 ovarian.
Experiment [7] deals with PC-3 prostate.
In experiment [8] the test system is SK-MEL-2 melanoma.
Experiment [9] relates to SNB-19 CNS.
Experiment [10] concerns T-47D breast.

The values that follow come from PubChem BioAssay (NCI).

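All cell lines were grown in 96-well plates and treated with compound for 48 hours. The concentration for full growth arrest is given as TGI.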

`CC1CN=C(c2cccc(OCc3ccc(COc4cccc(C5=NCC(C)N5)c4)cc3)c2)N1` (stereo not given): the TGI in [1] is greater than 100 µM; in [2], greater than 100 µM; in experiment [3], greater than 100 µM; in experiment [4] it was greater than 100 µM; in [5], 57.3 µM; in experiment [6] it was greater than 100 µM. For the same molecule, the TGI is greater than 100 µM in experiment [7], 79.7 µM in experiment [8], greater than 100 µM in [9] and greater than 100 µM in experiment [10].
Take `O=C1c2ccccc2S(=O)(=O)c2ccccc21`: the TGI in [1], in experiment [2], in [3], in experiment [4], in [5] and in experiment [6] was greater than 100 µM in each case. Also, the TGI in experiment [7], in experiment [8], in experiment [9] and in [10] was greater than 100 µM in each case.
Turning to `CCCCn1cc(C(=O)O)c(=O)c2c3sccc3ccc21`, the TGI in experiment [1], in [2], in experiment [3], in experiment [4], in [5] and in experiment [6] was greater than 100 µM each time. Moreover, the TGI in [7], in experiment [8], in experiment [9] and in [10] was greater than 100 µM each time.
